Measurements as given in paper PMC6888133, “Identification and Characterization of a Fatty Acid- and Retinoid-Binding Protein Gene (Ar-far-1) from the Chrysanthemum Foliar Nematode, Aphelenchoides ritzemabosi” (International Journal of Molecular Sciences, 2019).

Biological target: T1, rAr-FAR-1 (Ar-FAR-1) (Aphelenchoides ritzemabosi, UniProt A0A2D0WIZ9)
T1 construct: full-length 181 aa ORF with signal peptide (18 aa, cleavage Ala18/Glu19); E. coli BL21(DE3)
T1 sequence (A0A2D0WIZ9 1-181): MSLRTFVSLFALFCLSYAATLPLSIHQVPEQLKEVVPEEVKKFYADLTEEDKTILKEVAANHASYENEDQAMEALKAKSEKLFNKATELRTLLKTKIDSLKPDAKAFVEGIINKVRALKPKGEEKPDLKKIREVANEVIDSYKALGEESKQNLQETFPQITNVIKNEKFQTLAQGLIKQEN
Test: fluorescence titration
Assay type: binding

| Compound | Kd [nM] |
| --- | --- |
| CN(C)c1cccc2c(S(=O)(=O)NCCCCCCCCCCC(=O)O)cccc12 [DAUDA, 11-(5-dimethylaminonaphthalene-1-sulfonylamino) undecanoic acid] | 40.5 |
| CC1=C(/C=C/C(C)=C/C=C/C(C)=C/CO)C(C)(C)CCC1 [retinol] | 67.9 |
